US20040087498A1, “Modified factor VII” (Novo Nordisk Health Care AG, priority 1991, published 2004)
Values joined by “and” are separate entries in the source; they are usually repeats but may differ in a detail not shown here. Equal values may be shown once.

Experiments:
rabbit plasma = assay: Prothrombin time in plasma of balloon angioplasty rabbits; format: in vivo; details: for Clotting Time (prothrombin time), individual animals: listed as DEGR-FVIIa
Description: The test drug delivery for the animals consisted of an initial bolus injection immediately prior to balloon angioplasty, followed by a continuous systemic infusion by osmotic pump via the internal jugular vein. The duration of the drug infusion was 3 days. The control animals received heparin, 150 U/kg IV bolus, prior to balloon angioplasty followed by saline infusion. The DEGR-FVIIa treated animals received a 1 mg/kg bolus injection followed by 50 μg/kg/hr infusion.
Prothrombin time and concentration of DEGR-FVIIa in the blood were determined at immediately pre-bolus injection of the test compound, 1 hr post bolus injection, and at 3 days at the end of continuous infusion. One to two mls of citrated plasma was obtained and the prothrombin times and antigen levels determined.
A standard clotting assay was used to monitor the prothrombin time in the control and DEGR-FVIIa-treated animals as follows. Twenty-five microliters of test rabbit plasma, collected with sodium citrate as anticoagulant, was added to 150 μl of TBS (20 mM Tris, pH 7.4, 150 mM NaCl). The samples were mixed and added to an Electra 800 Automated Coagulation Timer (Medical Laboratories Automation, Pleasantville, N.Y.). After incubation, 200 μl of thromboplastin preparation (Sigma Chemical) containing 25 mM CaCl2 was added to the plasma preparations. A concentration of thromboplastin that gave a clotting time of approximately 20 seconds in the control rabbit plasma was selected.

[1] = test system: tissue factor (TF) and activated Factor VII (FVIIa) mediation of vascular lesion formation; assay: Vascular lesion formation after carotid endarterectomy in baboons; format: in vivo; details: baboon
Description: Measurements were performed for vascular lesion formation on day 30. The results in 5 treated animals were compared with the findings in 5 concurrent vehicle buffer-infused controls.
Under halothane anesthesia and sterile operating conditions, animals labeled with autologous ^111In-platelets received intravenous infusions of DEGR-FVIIa using the tether system for continuous intravenous administration (initial bolus injection of 1 mg/kg followed by continuous intravenous infusion of 50 μg/kg/hr. The animals received surgical carotid endarterectomy, bilateral brachial artery or bilateral femoral artery Fogarty balloon catheter angioplasties.
The DEGR-FVIIa was administered for 7 or 30 days by continuous infusions via venous catheter using the tether system. Thirty days after surgery the animals were anesthetized with halothane and underwent in situ pressure-perfusion fixation with 4% paraformaldehyde containing 0.1% glutaraldeyde for 30 min. […]
Carotid endarterectomy was performed through a midline neck incision using the technique of Hanson et al., Hypertension 18:I170-I-176 (1991) and Krupski et al., Circulation 84:1749-1757 (1991), incorporated herein by reference. […] The endarterectomy was then performed beginning 1 cm from the divided end of the everted vessel segment and continued for a measured distance of 1 cm. […]

[2] = test system: fibrin deposition associated with endotoxemia; assay: Fibrin deposition in kidneys and lungs in rabbits; format: in vivo, rabbit
gram-negative bacteremia = assay: Survival of treated baboons; format: in vivo, baboon
[3] = target: T1, cell-surface tissue factor on rat smooth muscle cells (Rattus norvegicus, UniProt P42533); assay: Dose-dependent cell-surface chromogenic activity on rat smooth muscle cells; format: cell-based
T1 construct: endogenous in cells; host or cells: rat vascular smooth muscle cells
T1 sequence (P42533 29-295): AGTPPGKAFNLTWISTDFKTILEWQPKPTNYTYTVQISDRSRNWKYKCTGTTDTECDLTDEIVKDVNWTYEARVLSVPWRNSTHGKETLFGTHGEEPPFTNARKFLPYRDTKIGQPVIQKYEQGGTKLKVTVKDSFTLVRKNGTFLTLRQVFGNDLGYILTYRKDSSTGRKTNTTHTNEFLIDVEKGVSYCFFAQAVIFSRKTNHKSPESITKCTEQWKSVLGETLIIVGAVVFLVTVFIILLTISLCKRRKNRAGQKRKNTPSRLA
Description: Rat vascular smooth muscle cells were plated into 96-well culture dishes at 4,000 cells per well in growth medium supplemented with 1% fetal calf serum (as in Table 4 without 10% fetal calf serum). […] The cells were incubated with the Factor VII mixtures for 2 hours at 37° C. After incubation, the cells were washed and incubated with 50 μl of 200 nM Factor X in tris buffered saline for 5 minutes at room temperature. Each well had 25 μl of 0.5 M EDTA and 25 μl of […] S-2222 (Kabi Pharmacia) added to it, and the plates were incubated for 40 minutes at room temperature. Chromogenic activity was analyzed at 405 nm in a microplate reader as described above.

DEGR-Factor VIIa: Recombinant human Factor VIIa with its active site derivatized by Dansyl-L-Glu-Gly-Arg-chloromethyl Ketone (DEGRck)
Plasma clotting time, Mean (rabbit plasma; 1 Hr POST ANGIO): 40.8
Plasma clotting time, Mean (rabbit plasma; 3 Days POST ANGIO): 21.06
Clotting Time (prothrombin time), individual animals (rabbit plasma; 1 hour after 1 mg/kg bolus, 50 μg/kg/hr infusion): 40.1 s and 34 s and 50 s and 33.3 s and 45.8 s and 41.6 s
Clotting Time (prothrombin time), individual animals (rabbit plasma; 3 days, end of 50 μg/kg/hr infusion): 18.3 s and 20.9 s and 21.7 s and 21 s and 21.2 s and 21.9 s and 22.4 s
Plasma clotting time, Mean (rabbit plasma; PRE-BLEED): 23.2
Clotting Time (prothrombin time), individual animals (rabbit plasma; Pretreatment (pre-bolus)): 22.5 s and 24.3 s and 24.7 s and 23.6 s and 20.6 s and 23.5 s
intimal area ([1]; treated for 30 days, examined at 30 days): A similar result
intimal area ([1]; treated for seven days, studied at 30 days, versus control): significantly decreased
fibrin deposition in kidneys and lungs [2]: dose-response effect for blocking fibrin deposition in kidneys and lungs
survival (gram-negative bacteremia): prolong survival of treated animals
inhibition of the chromogenic activity ([3]; 1:1 molar ratio of DEGR-Factor VIIa:Factor VIIa): approximately 95%
OD405 ([3]; DEGR-Factor VIIa 1.56 nM co-incubated with 100 nM Factor VIIa): .116
OD405 ([3]; DEGR-Factor VIIa 6.25 nM co-incubated with 100 nM Factor VIIa): .073
OD405 ([3]; DEGR-Factor VIIa 25.00 nM co-incubated with 100 nM Factor VIIa): .026
OD405 ([3]; DEGR-Factor VIIa 100.00 nM co-incubated with 100 nM Factor VIIa): .014
OD405 ([3]; DEGR-Factor VIIa .39 nM co-incubated with 100 nM Factor VIIa): .176
